# Experimental data: the supplement of paper PMC10307832
# Key:
# Test in all cases: relative viability (nuclei count vs DMSO), 5 days (fraction); higher = more cells survive
# [1] = compound: O=c1[nH]cc(F)c(=O)[nH]1 [5-Fluorouracil] + CC(C)C[C@H](NC(=O)[C@H](Cc1ccccc1)NC(=O)c1cnccn1)B(O)O [Bortezomib] (partner 0.002 µM)
# Summary of the method: (§1)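 The day after seeding in 1536-well plates, lung cancer cell lines were treated by pin tool with a single drug, or with a fixed anchor-drug dose together with five library-drug doses (not always all listed) in √10 steps. After 5 days, a combined fix-and-stain solution (final 0.05% Triton X-100, 1% formaldehyde, 1 ug/ml Hoechst) was added. Nuclei counted on 4× images gave relative viability as treated counts over vehicle counts, reported as the median of duplicate plates.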
# Sulindac + Linsitinib = compound: CC1=C(CC(=O)O)c2cc(F)ccc2/C1=C\c1ccc([S+](C)[O-])cc1 [Sulindac] + C[C@]1(O)C[C@@H](c2nc(-c3ccc4ccc(-c5ccccc5)nc4c3)c3c(N)nccn32)C1 [Linsitinib] (partner 1 µM)
# Summary of the method: as §1
# [2] = compound: CN[C@@H]1C[C@H]2O[C@@](C)([C@@H]1OC)n1c3ccccc3c3c4c(c5c6ccccc6n2c5c31)C(=O)NC4 [Staurosporine] + Cc1nc(NC(=O)N2CCC[C@H]2C(N)=O)sc1-c1ccnc(C(C)(C)C(F)(F)F)c1 [Alpelisib] (partner 2 µM)
# Summary of the method: as §1
# [3] = compound: CN[C@@H]1C[C@H]2O[C@@](C)([C@@H]1OC)n1c3ccccc3c3c4c(c5c6ccccc6n2c5c31)C(=O)NC4 [Staurosporine] + C[C@]1(O)C[C@@H](c2nc(-c3ccc4ccc(-c5ccccc5)nc4c3)c3c(N)nccn32)C1 [Linsitinib] (partner 1 µM)
# Summary of the method: as §1
cell line,measurement,setting,value
UMC-11,relative viability,[1]; first compound 0.02 µM,0.674
same,relative viability,[1]; first compound 0.2 µM,0.542
same,relative viability,[1]; first compound 0.6325 µM,0.368
same,relative viability,[1]; first compound 2 µM,0.35
same,relative viability,Sulindac + Linsitinib; first compound 0.08 µM,1.27
same,relative viability,Sulindac + Linsitinib; first compound 0.253 µM,1.02
same,relative viability,Sulindac + Linsitinib; first compound 0.8 µM,0.815
same,relative viability,Sulindac + Linsitinib; first compound 2.53 µM,1.06
same,relative viability,Sulindac + Linsitinib; first compound 8 µM,1.07
same,relative viability,[2]; first compound 0.005 µM,0.882
same,relative viability,[2]; first compound 0.01581 µM,0.427
same,relative viability,[2]; first compound 0.05 µM,0.461
same,relative viability,[2]; first compound 0.1581 µM,0.145
same,relative viability,[2]; first compound 0.5 µM,0.0643
same,relative viability,[3]; first compound 0.005 µM,0.901
same,relative viability,[3]; first compound 0.01581 µM,0.569
same,relative viability,[3]; first compound 0.05 µM,0.583
same,relative viability,[3]; first compound 0.1581 µM,0.126
same,relative viability,[3]; first compound 0.5 µM,0.0837
